Laboratory results from ChEMBL document CHEMBL5674860, “Optimized Dual-Glo Assay to identify co-culture-induced drug vulnerabilities in 3D CRC models” (2024).

Columns and labels:
Type in all cases: functional, Homo sapiens
Parameters in all cases: dose or concentration left out as unconfirmed
Colon cancer organoid [1] = assay: Optimized Dual-Glo assay to identify co-culture induced drug vulnerabilities using donated chemical probes and chemogenomics kinase set in O06 CRC organoid and F06 CAF mono and co-culture. […] Cell viability is reported both mono and co-culture models.
Colon cancer organoid [2] = assay: Optimized Dual-Glo assay to identify co-culture induced drug vulnerabilities using donated chemical probes and chemogenomics kinase set in O14 CRC organoid and F14 CAF mono and co-culture. […] Cell viability is reported both mono and co-culture models.
Colon cancer organoid [3] = assay: Optimized Dual-Glo assay to identify co-culture induced drug vulnerabilities using donated chemical probes and chemogenomics kinase set in O20 CRC organoid and F20 CAF mono and co-culture. […] Cell viability is reported both mono and co-culture models.
[4] = Culture type Co-Culture, Transduced with Lucferase2-P2A-EGFP lentivirus
[5] = Culture type Co-Culture, Transduced with Renilla-dsRed lentivirus
[6] = Culture type Mono-Culture, Transduced with Lucferase2-P2A-EGFP lentivirus
[7] = Culture type Mono-Culture, Transduced with Renilla-dsRed lentivirus

SMILES | Cell Viability (Colon cancer organoid [1]; [4]) [%] | Cell Viability (Colon cancer organoid [1]; [5]) [%] | Cell Viability (Colon cancer organoid [1]; [6]) [%] | Cell Viability (Colon cancer organoid [1]; [7]) [%] | Cell Viability (Colon cancer organoid [2]; [4]) [%] | Cell Viability (Colon cancer organoid [2]; [5]) [%] | Cell Viability (Colon cancer organoid [2]; [6]) [%] | Cell Viability (Colon cancer organoid [2]; [7]) [%] | Cell Viability (Colon cancer organoid [3]; [4]) [%] | Cell Viability (Colon cancer organoid [3]; [5]) [%] | Cell Viability (Colon cancer organoid [3]; [6]) [%] | Cell Viability (Colon cancer organoid [3]; [7]) [%]
COc1cc(Nc2ccnc3ccc(Br)cc23)cc(OC)c1OC | 12.1878 | 144.697 | 4.043 | 101.861 | 114.11 | 94.8334 | 91.9496 | 94.0266 | 3.207 | 235.19 | 3.534 | 97.9085
CO[C@@H](C)c1c(Nc2ccc([C@H](N(C)C(=O)C3CCS(=O)(=O)CC3)C(F)(F)F)cc2)cnc2cc(Cl)nn12 [NVS-MALT1] | 54.3511 | 83.5282 | 80.0936 | 98.6896 | 62.6088 | 105.477 | 102.315 | 101.932 | 87.8486 | 98.697 | 70.7423 | 82.2292
COCc1nc2cnc3cc(-c4c(C)noc4C)c(OC[C@H]4CCNC4)cc3c2n1[C@H](C)c1ccccc1 [GSK778] | 81.063 | 183.714 | 53.5183 | 186.322 | 59.3767 | 280.444 | 39.3913 | 175.876 | 27.5933 | 143.906 | 31.8546 | 105.119
Cn1cncc1[C@@](O)(COc1ccc(C#N)cc1-c1ccc(OC(F)(F)F)cc1)c1ccc(C#N)cc1 [A-108] | 113.578 | 151.877 | 88.7228 | 108.002 | 57.9117 | 92.8032 | 90.1674 | 97.2035 | 89.1467 | 110.638 | 65.4211 | 112.38
CN1CCN(C(=O)C(C)(C)c2ccc(C(=O)Nc3cn4cc(-c5ccncc5)ccc4n3)cc2)CC1 [T3-CLK] | 42.8408 | 189.116 | 24.3767 | 109.981 | 26.2693 | 164.302 | 35.9707 | 93.5791 | 17.3495 | 291.942 | 28.5908 | 98.0167
Cc1ccc(-c2cnc([C@@]3(O)CC[C@H](C(=O)O)C(C)(C)C3)s2)cc1Nc1cccc(C(F)(F)F)n1 [MRL-SYKi-NC] | 103.411 | 158.333 | 78.37 | 87.8946 | 89.1631 | 98.4974 | 85.8631 | 77.2403 | 106.503 | 131.597 | 144.144 | 94.9642
CN(C)[C@H]1CN(C2CCc3cccc(F)c32)C[C@@H]1c1ccc(N2CCN(S(C)(=O)=O)CC2)cc1 (some centres undefined) | 82.1891 | 127.07 | 99.7479 | 137.803 | 85.2853 | 124.227 | 108.249 | 110.303 | 31.8041 | 145.189 | 62.1102 | 96.7919
